Like-named read-outs stand apart in the source and are kept apart here.
Assays:
TPO-R = target: T1, TPO-R (Homo sapiens, UniProt P40238); assay: competition binding assay: MBP-TPO156 binding to immobilized TPO-R (ELISA); details: read-out: IC50
T1 construct: made in house
T1 sequence (P40238 26-491 limits assumed): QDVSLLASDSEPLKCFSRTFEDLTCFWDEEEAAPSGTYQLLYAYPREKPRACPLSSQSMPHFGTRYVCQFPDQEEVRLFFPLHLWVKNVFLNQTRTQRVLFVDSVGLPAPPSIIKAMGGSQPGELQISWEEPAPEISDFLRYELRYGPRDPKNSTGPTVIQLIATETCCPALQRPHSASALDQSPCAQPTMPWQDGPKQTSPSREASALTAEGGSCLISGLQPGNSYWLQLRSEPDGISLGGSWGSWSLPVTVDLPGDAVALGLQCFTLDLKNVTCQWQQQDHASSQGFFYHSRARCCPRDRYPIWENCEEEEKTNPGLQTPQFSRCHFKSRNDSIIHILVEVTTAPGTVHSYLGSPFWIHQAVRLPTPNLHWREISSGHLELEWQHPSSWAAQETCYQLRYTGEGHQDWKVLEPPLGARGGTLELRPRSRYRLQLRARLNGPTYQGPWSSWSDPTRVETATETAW
Procedure: A variety of methods can be used to evaluate IC50 values. For example, an equilibrium binding ELISA assay, using either MBP-TPO or lacI-peptide tracer, was used to determine whether the peptides inhibit the binding of TPO to the extracellular domain of the TPO receptor. Typically, the IC50 value were determined using the free peptide. The IC50value can be determined using the free peptide, which optionally can be C-terminally amidated, or can be prepared as an ester or other carboxy amide.
Binding affinities of chemically synthesized peptides for TPO-R were measured in a competition binding assay. The wells of a microtiter plate were coated with 1 mg streptavidin, blocked with PBS/1% BSA, followed by 50 ng of biotinylated anti-receptor immobilizing antibody (Ab179). The wells were then treated with a 1:10 dilution of soluble TPO-R harvest. Various concentrations of peptide or peptide mimetic were mixed with a constant amount of a truncated form of TPO consisting of residues 1–156 fused to the C-terminus of maltose binding protein (MBP-TPO156). The peptide MBP-TPO156 mixtures were added to the TPO-R coated wells, incubated for 2 hours at 4° C. and then washed with PBS. The amount of MBP-TPO156 that was bound at equilibrium was measured by adding a rabbit anti-sera directed against MBP, followed by alkaline phosphatase conjugated goat anti-rabbit IgG. The amount of alkaline phosphatase in each well was then determined using standard methods.
The assay is conducted over a range of peptide concentrations and the results are graphed such that the y axis represents the amount of bound MBP-TPO156 and the x axis represents the concentration of peptide or peptide mimetic.

human TPO-R = target: T2, human TPO-R (Homo sapiens, UniProt P40238); assay: thrombopoietin dependent cell proliferation assay, TPO-R transfected Ba/F3 cells (MTT); type: cell-based
T2 construct: transfected with full length human TPO-R; expressed in transfected cells; host or cells: murine Ba/F3 cells
T2 sequence (P40238 26-635): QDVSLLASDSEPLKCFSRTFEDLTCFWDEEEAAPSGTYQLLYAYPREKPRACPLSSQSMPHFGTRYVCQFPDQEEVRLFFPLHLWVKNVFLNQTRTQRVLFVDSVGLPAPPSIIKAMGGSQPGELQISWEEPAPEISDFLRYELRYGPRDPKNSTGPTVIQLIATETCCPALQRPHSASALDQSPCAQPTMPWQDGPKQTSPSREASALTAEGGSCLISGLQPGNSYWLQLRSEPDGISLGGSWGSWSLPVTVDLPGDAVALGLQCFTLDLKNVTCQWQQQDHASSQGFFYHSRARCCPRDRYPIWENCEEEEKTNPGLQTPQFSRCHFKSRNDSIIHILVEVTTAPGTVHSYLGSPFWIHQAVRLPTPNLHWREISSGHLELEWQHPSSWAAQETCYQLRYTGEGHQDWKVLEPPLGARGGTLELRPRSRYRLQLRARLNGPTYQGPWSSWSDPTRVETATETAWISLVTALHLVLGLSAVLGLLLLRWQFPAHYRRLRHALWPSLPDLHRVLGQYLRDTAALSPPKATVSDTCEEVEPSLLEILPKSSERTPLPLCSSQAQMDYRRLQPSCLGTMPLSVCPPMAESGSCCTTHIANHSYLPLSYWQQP
Procedure: Bioactivity of the peptides can be measured using a thrombopoietin dependent cell proliferation assay. Murine IL-3 dependent Ba/F3 cells were transfected with full length human TPO-R. In the absence of IL-3 (WEHI-3 conditioned media), these cells are dependent on TPO for proliferation.
The cells were grown in complete RPMI-10 media, containing 10% WEHI-3 conditioned media, then washed twice in PBS, resuspended in media which lacked WEHI-3 conditioned media, and added to wells containing dilutions of peptide or TPO at 2×10^4 cells/well. The cells were incubated for 48 hours at 37° C. in a humidified 5% Co2 atmosphere and metabolic activity was assayed by the reduction of MTT to formazan, with absorbance at 570 nm measured on an ELISA plate reader.

TPO receptor = target: T3, TPO receptor (Homo sapiens, UniProt P40238); assay: microphysiometer assay: rate of acidification of the extracellular medium in response to TPO receptor stimulation; type: cell-based; details: Table 9; read-out: EC50 (nM) Microphys.
T3 sequence (P40238 26-635): T2 sequence (P40238 26-635)
Procedure: In this example cyclized compounds were subjected to three assays. […] Finally, a microphysiometer (Molecular Devices Corp.) assay was performed. […] The ranges for EC50 are symbolically indicated as for IC50 described above.

CC[C@H](C)[C@H](N)C(=O)N[C@@H](CCC(=O)O)C(=O)NCC(=O)N1CCC[C@H]1C(=O)N[C@H](C(=O)N[C@@H](CC(C)C)C(=O)N[C@@H](CCCNC(=N)N)C(=O)N[C@@H](CCC(N)=O)C(=O)N[C@@H](Cc1c[nH]c2ccccc12)C(=O)N[C@@H](CC(C)C)C(=O)N[C@@H](C)C(=O)N[C@@H](C)C(=O)N[C@@H](CCCNC(=N)N)C(=O)N[C@@H](C)C(=O)NCCCC[C@H](NC(=O)CCNC(=O)[C@H](C)NC(=O)[C@H](CCCNC(=N)N)NC(=O)[C@H](C)NC(=O)[C@H](C)NC(=O)[C@H](CC(C)C)NC(=O)[C@H](Cc1c[nH]c2ccccc12)NC(=O)[C@H](CCC(N)=O)NC(=O)[C@H](CCCNC(=N)N)NC(=O)[C@H](CC(C)C)NC(=O)[C@@H](NC(=O)[C@@H]1CCCN1C(=O)CNC(=O)[C@H](CCC(=O)O)NC(=O)[C@@H](N)[C@@H](C)CC)[C@@H](C)O)C(N)=O)[C@@H](C)O
≤ 500 nM: IC50 (TPO-R; Table 7, dimer compounds) | IC50 (TPO-R; Table 9) | EC50 (human TPO-R; Table 9, read-out: EC50 (nM) Prolif.) | EC50 (human TPO-R; Table 10, value outside parentheses, read-out: EC50 (nM) Cell Prolif.) | EC50 (TPO receptor)
